In ChEMBL document CHEMBL5042504 (J Med Chem, 2022):
Activity calls are given as the source filed them. The calls are words filed in the database; no cut-off is given here.

Tests used:
[1] = Drug distribution in BALB/c mouse heart measured at 4 mg/kg, po or ip after 0.5 hrs after 0.5 hrs; format: ADME, organism-based; settings: in vivo
Histone deacetylase 3 [2] = target: T1, Histone deacetylase 3 (Homo sapiens, UniProt O15379); assay: Inhibition of human recombinant HDAC3 using Boc-Lys(acetyl)-AMC substrate incubated for 2 hrs by fluorescence based assay
T1 sequence (O15379 whole entry): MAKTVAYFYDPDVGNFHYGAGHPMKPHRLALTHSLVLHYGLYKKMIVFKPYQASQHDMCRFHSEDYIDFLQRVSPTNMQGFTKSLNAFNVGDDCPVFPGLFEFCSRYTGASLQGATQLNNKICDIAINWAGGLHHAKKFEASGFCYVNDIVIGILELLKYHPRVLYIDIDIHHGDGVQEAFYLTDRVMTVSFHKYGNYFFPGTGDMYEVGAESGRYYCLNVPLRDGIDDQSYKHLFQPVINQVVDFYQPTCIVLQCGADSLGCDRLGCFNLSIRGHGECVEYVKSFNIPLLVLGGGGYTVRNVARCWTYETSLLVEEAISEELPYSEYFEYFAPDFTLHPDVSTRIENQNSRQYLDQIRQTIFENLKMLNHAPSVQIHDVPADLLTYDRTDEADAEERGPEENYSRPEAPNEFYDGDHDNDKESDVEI

[3] = Drug metabolism in BALB/c mouse liver assessed as metabolized compound; format: ADME, tissue-based
MV4-11 [4] = assay: Antitumor activity against human MV4-11 cells xenografted in BALB/c mouse assessed as inhibition of tumor growth at single administration for 4 mg/kg, po incubated for 0.5 to 8 hrs; format: functional, organism-based; settings: time 0.5-8 hrs
[5] = Drug distribution in BALB/c mouse gut measured at 4 mg/kg, po or ip after 0.5 hrs after 0.5 hrs; format: ADME, organism-based; settings: in vivo
[6] = Antitumor activity against human MV4-11 cells xenografted in BALB/c mouse assessed as growth inhibition at 2 to 4 mg/kg, po ad; format: functional; settings: dose 2-4 mg/kg, time 24 day
[7] = Cmax in CD-1 mouse at 20 mg/kg, po measured upto 24 hrs; format: ADME, organism-based; set-up: route oral, dose 20 mg/kg, time <=24; settings: CD-1, mouse, in vivo, read-out: Cmax
[8] = Drug distribution in BALB/c mouse kidney measured at 4 mg/kg, po or ip after 0.5 hrs after 0.5 hrs; format: ADME, organism-based; settings: in vivo
[9] = Drug uptake in BALB/c mouse xenografted with human AML MV4-11 cells assessed as tumor tissue at 4 mg/kg ip measured after 0.5 to 6 hrs by LC-MS/MS; format: ADME, organism-based; settings: in vivo, time 0.5-6 hrs
[10] = Toxicity in BALB/c mouse assessed as induction of pathological changes in spleen by H and E staining based analysis; format: tissue-based; settings: in vivo
Histone deacetylase 1 = Histone deacetylase 1 (Homo sapiens, UniProt Q13547); assay: Inhibition of HDAC1 (unknown origin)preincubated upto 2 hrs by fluorescence based assay; settings: time hrs <=2
Histone deacetylase 1, sequence (Q13547 whole entry): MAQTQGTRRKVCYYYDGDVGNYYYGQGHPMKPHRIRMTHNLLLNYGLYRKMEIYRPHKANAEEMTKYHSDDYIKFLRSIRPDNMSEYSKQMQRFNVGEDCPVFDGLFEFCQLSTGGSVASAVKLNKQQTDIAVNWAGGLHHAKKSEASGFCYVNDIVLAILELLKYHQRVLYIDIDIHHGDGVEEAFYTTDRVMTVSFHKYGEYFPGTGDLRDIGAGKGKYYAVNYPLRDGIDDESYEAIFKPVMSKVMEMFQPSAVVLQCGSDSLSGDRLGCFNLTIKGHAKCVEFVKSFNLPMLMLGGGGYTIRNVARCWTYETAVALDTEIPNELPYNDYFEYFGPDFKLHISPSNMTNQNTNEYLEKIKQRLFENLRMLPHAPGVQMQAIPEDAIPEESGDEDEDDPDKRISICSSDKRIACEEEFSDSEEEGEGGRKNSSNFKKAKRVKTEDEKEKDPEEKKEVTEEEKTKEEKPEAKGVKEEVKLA

[11] = Drug distribution in BALB/c mouse spleen measured at 4 mg/kg, po or ip after 0.5 hrs; format: ADME, organism-based; settings: in vivo
MV4-11 [12] = assay: Antitumor activity against human MV4-11 cells xenografted in balb/c mouse assessed as accumulation of AcHH3 protein level at 4 mg/kg, po measured after 2 hrs; format: functional, organism-based
MV4-11 [13] = assay: Induction of apoptosis in human wt-p53 MV4-11 cells assessed as apoptotic cells at 500 nM measured after 24 hrs by FITC Annexin V/propidium iodide staining based flow cytometry (reference value: 9.14%); format: functional
MV4-11 [14] = assay: Antitumor activity against human MV4-11 cells xenografted in balb/c mouse assessed as accumulation of AcHH4 protein level at 4 mg/kg, po measured after 2 hrs; format: functional, organism-based
[15] = Drug distribution in BALB/c mouse heart measured at 4 mg/kg, po or ip after 2 to 8 hrs after 0.5 hrs; format: ADME, organism-based; settings: in vivo, time 2-8 hrs
[16] = Drug distribution in BALB/c mouse liver measured at 4 mg/kg, po or ip after 0.5 hrs after 0.5 hrs; format: ADME, organism-based; settings: in vivo
HL-60 [17] = assay: Cell cycle arrest in human […] HL60 cells assessed as accumulation at G2/M-phase at 500 nM measured after 24 hrs realtive to control; format: functional, cell-based
MV4-11 [18] = assay: Cell cycle arrest in human wt-p53 MV4-11 cells assessed as accumulation at G2/M-phase at 200 nM measured after 24 hrs realtive to control; format: functional, cell-based
[19] = Drug distribution in BALB/c mouse liver measured at 4 mg/kg, po or ip after 2 to 8 hrs after 0.5 hrs; format: ADME, organism-based; settings: in vivo, time 2-8 hrs
[20] = Cmax in CD-1 mouse at 5 mg/kg, iv measured upto 24 hrs; format: ADME, organism-based; set-up: route intravenous, dose 5 mg/kg, time <=24; settings: in vivo
[21] = Drug distribution in BALB/c mouse lung measured at 4 mg/kg, po or ip after 0.5 hrs after 0.5 hrs; format: ADME, organism-based; settings: in vivo
MV4-11 [22] = assay: Induction of apoptosis in human wt-p53 MV4-11 cells assessed as apoptotic cells at 200 nM measured after 24 hrs by FITC Annexin V/propidium iodide staining based flow cytometry (reference value: 9.14%); format: functional
[23] = Half life in CD-1 mouse at 20 mg/kg, po measured upto 24 hrs; format: ADME, organism-based; settings: in vivo
HL-60 [24] = assay: Cell cycle arrest in human […] HL60 cells assessed as accumulation at G2/M-phase at 200 nM measured after 24 hrs realtive to control; format: functional, cell-based
[25] = Half life in CD-1 mouse at 5 mg/kg, iv measured upto 24 hrs; format: ADME, organism-based; settings: in vivo
HL-60 [26] = assay: Induction of apoptosis in human p53 null HL-60 cells assessed as […] at 500 nM measured after 24 hrs by FITC Annexin V/propidium iodide staining based flow cytometry (reference value: 20.55%); format: functional; settings: read-out: Activity
[27] = Plasma concentration in BALB/c mouse xenografted with human AML MV4-11 cells at 4 mg/kg, ip; format: ADME, organism-based; settings: in vivo
[28] = AUC (0 to infinity) in CD-1 mouse at 5 mg/kg, iv measured upto 24 hrs; format: ADME, organism-based; set-up: route intravenous, dose 5 mg/kg, time <=24; settings: in vivo
[29] = Drug distribution in BALB/c mouse kidney measured at 4 mg/kg, po or ip after 2 to 8 hrs after 0.5 hrs; format: ADME, organism-based; settings: in vivo, time 2-8 hrs
Histone deacetylase 3 [30] = target: T1, Histone deacetylase 3; assay: Inhibition of HDAC3(unknown origin) preincubated upto 2 hrs by fluorescence based assay; settings: time hrs <=2
Histone deacetylase 3 [31] = target: T1, Histone deacetylase 3; assay: Non competitive type inhibition of human HDAC3 (unknown origin) by Lineweaver-Burk plot analysis
[32] = Drug distribution in BALB/c mouse spleen measured at 4 mg/kg, po or ip after 2 to 8 hrs after 0.5 hrs; format: ADME, organism-based; settings: in vivo, time 2-8 hrs

For `CCCNNC(=O)c1ccc(CNC(=O)c2cc3ccccc3[nH]2)cc1`, the Drug uptake [1] was “Active”, the IC50 (Histone deacetylase 3 [2]) was 0.44 nM and the Drug metabolism [3] was “Metabolite_Detected”. For the same compound, the Activity (MV4-11 [4]) was “Active”, the Drug uptake [5] was “Active” and the T/C [6] was 22.2%. The Cmax [7] was 38800 ng/mL, the Drug uptake [8] was “Active” and the Drug uptake [9] was “Active”. For the same compound, the Activity [10] was “Non-Toxic”, the Activity (Histone deacetylase 1) was “Active” and the Drug uptake [11] was “Active”. For the same compound, the Activity (MV4-11 [12]) was “Active”, the Activity (MV4-11 [13]) was 88.1% and the Activity (MV4-11 [14]) was “Active”. For the same compound, the Drug uptake [15] was “Active”, the Drug uptake [16] was “Active” and the Activity (HL-60 [17]) was “Active”. For the same compound, the Activity (MV4-11 [18]) was “Active”, the Drug uptake [19] was “Active” and the Cmax [20] was 21600 ng/mL. The Drug uptake [21] was “Active”, the Activity (MV4-11 [22]) was 71.2% and the half-life [23] was 2.58 h. The Activity (HL-60 [24]) was “Active”, the half-life [25] was 6.75 h and the viability at 0.5 µM (HL-60 [26]) was 44.8%. For the same compound, the Drug uptake [27] was “Active”, the AUC [28] was 32179 ng·h/mL and the Drug uptake [29] was “Active”. The Activity (Histone deacetylase 3 [30]) was “Active”, the IC50 (Histone deacetylase 3 [31]) was 0.56 nM and the Drug uptake [32] was “Active”.
